Data as given in article PMC4938538, “Inhibition of Pig Phosphoenolpyruvate Carboxykinase Isoenzymes by 3-Mercaptopicolinic Acid and Novel Inhibitors” (PLoS ONE, 2016).
Positions count from the first letter of the chain named. “And” between values parts separate entries of the source, which are not always exact repeats. Identical values can stand only once.

Columns and labels:
[1] = test system: PEPCK-C 139Met; assay: Thermal-shift screening of chemical library (ANS fluorescence); assay type: binding, pig; settings: 25 μM compound, 4 μM PEPCK-C
Procedure: PEPCK-C effectors were identified from a chemical library using a screening procedure based on a thermal-shift assay. Potential protein effector compounds were dispensed into 96-well microplates. Each well contained 4 μM PEPCK-C in a 20 mM HEPES buffer pH 7.4, plus 1 mM TCEP, 100 μM ANS, 10% DMSO and either 1 or 5 chemical library compounds, each at a 25 μM concentration. […] 50 μL of mineral oil were added to each well to prevent evaporation. In a first screening round, 5 different compounds were present in each well. The binding of effectors to PEPCK-C was assessed by monitoring the thermal denaturation of the enzyme and identifying compounds inducing a stabilizing effect (increase in the unfolding temperature, Tm, compared to the free enzyme) in a FluoDia T70 High Temperature Fluorescence Microplate Reader (Photon Technology International, UK). To obtain Tm values, unfolding curves were fitted to Boltzmann function (Eq 1) using OriginPro 9.1 software. y(T) = A1−A2/1+exp(T−Tm/S)+A2 (1) where A1 and A2 are the asymptotic values of the signal in the pre- and post-transition region of the unfolding curve, respectively, and S is a parameter associated with the slope of the unfolding curve at the Tm and related to the unfolding enthalpy of the enzyme. […] In a second round, the compounds present in the positive wells were individually analyzed to identify the binders.

[2] = biological target: T1, PEPCK-C 139Leu (Sus scrofa, UniProt A0A4X1UM84, M139L); assay: Compound 1 and 2 inhibition assays in PEP synthesis direction (Vmax and Km); assay type: biochemical, pig; settings: for Vmax (GTP) in presence of inhibitor / Vmax (OAA) in presence of inhibitor: 50 μM inhibitor; for Vmax (OAA) in presence of inhibitor: OAA variable substrate
T1 construct: made in house; host or cells: Escherichia coli BL21 (DE3)
T1 sequence (A0A4X1UM84 1-622 M139L): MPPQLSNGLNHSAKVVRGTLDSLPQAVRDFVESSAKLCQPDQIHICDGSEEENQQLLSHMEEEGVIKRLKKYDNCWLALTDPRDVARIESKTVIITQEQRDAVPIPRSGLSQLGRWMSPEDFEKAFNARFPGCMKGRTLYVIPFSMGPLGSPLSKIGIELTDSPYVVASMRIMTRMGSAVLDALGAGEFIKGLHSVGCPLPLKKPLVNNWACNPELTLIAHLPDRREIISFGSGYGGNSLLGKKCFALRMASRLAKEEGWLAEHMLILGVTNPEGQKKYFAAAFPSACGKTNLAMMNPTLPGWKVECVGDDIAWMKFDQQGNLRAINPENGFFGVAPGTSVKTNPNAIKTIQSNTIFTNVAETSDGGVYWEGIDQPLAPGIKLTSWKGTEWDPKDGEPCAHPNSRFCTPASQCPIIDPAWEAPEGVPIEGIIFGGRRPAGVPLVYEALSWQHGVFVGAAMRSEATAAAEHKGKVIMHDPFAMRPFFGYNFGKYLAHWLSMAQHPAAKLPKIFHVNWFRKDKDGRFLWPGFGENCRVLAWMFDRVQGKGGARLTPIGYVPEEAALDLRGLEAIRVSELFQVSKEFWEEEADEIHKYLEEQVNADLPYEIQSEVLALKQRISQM
Procedure: (§1) PEPCK-C activity was measured in an UNICAM 500 spectrometer (UNICAM Analytical Systems, UK) with coupled spectrophotometric assays using pyruvate kinase and lactate dehydrogenase as auxiliary enzymes in PEP synthesis reaction and malate dehydrogenase in the reverse reaction.
(§2) 3-MP inhibitions assays in OAA synthesis direction were carried out as described before with the exception of the variable substrate (50–600 μM for PEP and 10–100 μM for GDP) and 3-MP concentration (10–100 μM). Assays in the direction of PEP synthesis were performed in 1 mL of a 100 mM HEPES buffer pH 7.4, containing 10 mM DTT, 0.2 mM MnCl2, 2 mM MgCl2, 1 mM GTP or 400 μM OAA, 1 mM ADP, 0.2 mM NADH, PEPCK-C and 5 units of each pyruvate kinase and lactate dehydrogenase. Reactions were initiated by addition of OAA. Variable substrates were 5–50 μM OAA or 25–500 μM GTP and 3-MP concentrations were between 10–400 μM. Rates were calculated by measuring the decreasing slope at 340 nm of absorbance after subtracting the rate of spontaneous NADH oxidation in the case of OAA synthesis or the rate of the blank which contained all the components of the mix but PEPCK-C in the case of PEP synthesis.
(§3) Compound 1 and 2 inhibitions assays were performed in PEP synthesis direction as described in 3-MP inhibition assays. Variable substrates were 10–100 μM OAA or 25–500 μM GTP, inhibitors concentrations were around IC50 value (100 μM compound 1 or 50 μM compound 2) and 20 units of each pyruvate kinase and lactate dehydrogenase were also added.
(§4) Data from compound 1 and 2 inhibition assays were represented in double reciprocal plots to calculate Vmax and Km values using GraphPad Prism 3.03 software.

[3] = test system: pyruvate kinase and lactate dehydrogenase; assay: Inhibition of auxiliary enzymes; assay type: biochemical; settings: 25–200 μM compound; data not shown
Source text: Reactions were initiated by addition of 0.5 units of each pyruvate kinase and lactate dehydrogenase.

[4] = biological target: T2, PEPCK-C 139Met (Sus scrofa, UniProt A0A4X1UM84); assay: Compound 1 and 2 inhibition assays in PEP synthesis direction (Vmax and Km); assay type: biochemical, pig; design: made in house; host or cells: Escherichia coli BL21 (DE3); settings: for Vmax (GTP) in presence of inhibitor / Vmax (OAA) in presence of inhibitor: 50 μM inhibitor; for Vmax (OAA) in presence of inhibitor: OAA variable substrate
T2 sequence (A0A4X1UM84 1-622): T1 sequence (A0A4X1UM84 1-622 M139L) with L139M
Procedure: as §1, §2, §3, §4

Inhibition of / interaction with auxiliary enzymes [3] | Reduction of Km value for GTP in presence of the inhibitor ([2]; GTP variable substrate) | Rise of Km value for GTP in presence of the inhibitor ([4]; GTP variable substrate) | Compound | Increase in Tm compared with controls [1] | Vmax (GTP) in presence of inhibitor ([2]; GTP variable substrate) | Vmax (OAA) in presence of inhibitor [2] | Vmax (GTP) in presence of inhibitor ([4]; GTP variable substrate) | Vmax (OAA) in presence of inhibitor [4]
slight inhibition | – | – | CC(=NNC(=S)NC1CCCCC1)c1sc(-c2cccs2)nc1C [compound 1, N1-cyclohexyl-2-{1-[4-methyl-2-(2-thienyl)-1,3-thiazol-5-yl]ethylidene}hydrazine-1-carbothiamide] | around 8 °C | 7.2 μmol min^-1 mg^-1 and 7.2 ± 0.4 ns μmol min^-1 mg^-1 | 9.4 μmol min^-1 mg^-1 and 9.4 ± 1.3 ns μmol min^-1 mg^-1 | 7.8 µmol/min/mg and 7.8 ± 0.5 µmol/min/mg | 6.7 µmol/min/mg and 6.7 ± 1.4 µmol/min/mg
slight interaction | about 30% | threefold | Cn1nc(-c2ccc(C=NNC(=O)c3ccc(Cl)cc3Cl)s2)cc1C(F)(F)F [compound 2, N'1-({5-[1-methyl-5-(trifluoromethyl)-1H-pyrazol-3-yl]-2-thienyl}methylidene)-2,4-dichlorobenzene-1-carbohydrazide] | around 8 °C | 6.1 ± 1.0 ns μmol min^-1 mg^-1 | 12.7 µmol/min/mg and 12.7 ± 1.1 µmol/min/mg | 5.9 ± 2.3 µmol/min/mg | 4.6 µmol/min/mg and 4.6 ± 1.4 µmol/min/mg
